Test results published in ChEMBL document CHEMBL1201862, “PubChem BioAssay data set” (2004).
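Protocol summary: plate cells (96-well), add compound at 5 concentrations, incubate 48 h, interpolate endpoints linearly. Here, GI50 denotes the concentration required for 50% inhibition of growth.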 The source made the active and inactive calls. Rule as the data show it: active = GI50 up to about 1.1 µM and inactive = higher.

Columns and labels:
Assay in all cases: NCI anticancer screen, dose series, 48 h
Malme-3M = system: Malme-3M
SN12C = system: SN12C
MOLT-4 = system: MOLT-4
NCI-H226 = system: NCI-H226
HCT-15 = system: HCT-15
SF-295 = system: SF-295
ACHN = system: ACHN
SNB-19 = system: SNB-19
HOP-62 = system: HOP-62
NCI-H522 = system: NCI-H522
UACC-257 = system: UACC-257
HT-29 = system: HT-29
HCC 2998 = system: HCC 2998
M14 = system: M14
UO-31 = system: UO-31
PC-3 = system: PC-3
UACC-62 = system: UACC-62
CAKI-1 = system: CAKI-1
SR = system: SR

| SMILES | GI50 (Malme-3M) | GI50 (SN12C) | GI50 (MOLT-4) | GI50 (NCI-H226) | GI50 (HCT-15) [µM] | GI50 (SF-295) | GI50 (ACHN) | GI50 (SNB-19) | GI50 (HOP-62) | GI50 (NCI-H522) | GI50 (UACC-257) | GI50 (HT-29) | GI50 (HCC 2998) | GI50 (M14) | GI50 (UO-31) | GI50 (PC-3) | GI50 (UACC-62) | GI50 (CAKI-1) | GI50 (SR) |
| --- | --- | --- | --- | --- | --- | --- | --- | --- | --- | --- | --- | --- | --- | --- | --- | --- | --- | --- | --- |
| NC(=O)C(=O)Cc1nc2ccccc2s1 | > 100 µM (inactive) | > 100 µM (inactive) | > 100 µM (inactive) | > 100 µM (inactive) | > 100 | > 100 µM (inactive) | > 100 µM (inactive) | > 100 µM (inactive) | > 100 µM (inactive) | > 100 µM (inactive) | > 100 µM (inactive) | > 100 µM (inactive) | > 100 µM (inactive) | > 100 µM (inactive) | > 100 µM (inactive) |  |  |  |  |
| C=C1C(=O)OC2/C=C(\C)C(O)CC(O)C(C)(O)CC(OC(=O)/C(C)=C/C)C12 (stereo not drawn) | 50 µM (inactive) | 39.8 µM (inactive) | 1.34 µM (inactive) | 33.4 µM (inactive) | 28.4 | 55.1 µM (inactive) | 39.2 µM (inactive) | 66.5 µM (inactive) | > 100 µM (inactive) | 28.1 µM (inactive) | 83.8 µM (inactive) | 39.6 µM (inactive) | 34.9 µM (inactive) | 60.1 µM (inactive) | 44.6 µM (inactive) | 46.1 µM (inactive) | 33.7 µM (inactive) | 29 µM (inactive) |  |
| O=C(CC1Sc2ccccc2NC1=O)Nc1ccc([N+](=O)[O-])cc1[N+](=O)[O-] (stereo not drawn) | 19.8 µM (inactive) | 16.1 µM (inactive) | 20.1 µM (inactive) | 11.9 µM (inactive) |  | 16.8 µM (inactive) | 15.3 µM (inactive) | 19.5 µM (inactive) | 40.6 µM (inactive) |  | 19.9 µM (inactive) | 17.7 µM (inactive) | 50.9 µM (inactive) | 16 µM (inactive) | 12 µM (inactive) |  | 15.4 µM (inactive) |  |  |
| C[S+]=c1sc2ccccc2s1 | > 100 µM (inactive) | > 100 µM (inactive) | > 100 µM (inactive) | > 100 µM (inactive) | > 100 | > 100 µM (inactive) | > 100 µM (inactive) | > 100 µM (inactive) | > 100 µM (inactive) | > 100 µM (inactive) | > 100 µM (inactive) | > 100 µM (inactive) | > 100 µM (inactive) | > 100 µM (inactive) | > 100 µM (inactive) |  | > 100 µM (inactive) | > 100 µM (inactive) | > 100 µM (inactive) |
| CC1=N/C(=C\c2cccc3ccccc23)C(=O)O1 | > 100 µM (inactive) | > 100 µM (inactive) | > 100 µM (inactive) |  | > 100 | > 100 µM (inactive) | > 100 µM (inactive) | > 100 µM (inactive) | > 100 µM (inactive) | > 100 µM (inactive) | > 100 µM (inactive) | > 100 µM (inactive) | > 100 µM (inactive) | > 100 µM (inactive) | > 100 µM (inactive) |  | > 100 µM (inactive) |  |  |
| Nc1ncnc2c1ncn2C1OC(COC2C(CO)OC(OC(C(=O)O)C(O)C(OP(=O)(O)O)C(O)C(=O)O)C(O)C2O)C(O)C1O (stereo not drawn) | 45.7 µM (inactive) |  | > 100 µM (inactive) | > 100 µM (inactive) | > 100 | > 100 µM (inactive) | 37.7 µM (inactive) | > 100 µM (inactive) | > 100 µM (inactive) | 59.3 µM (inactive) | > 100 µM (inactive) | > 100 µM (inactive) | > 100 µM (inactive) | > 100 µM (inactive) |  | > 100 µM (inactive) |  | > 100 µM (inactive) | 15.7 µM (inactive) |
| COC(=O)C1(C)NCCc2c1[nH]c1ccccc21 (stereo not drawn) | > 100 µM (inactive) | > 100 µM (inactive) | > 100 µM (inactive) |  | > 100 | > 100 µM (inactive) |  | > 100 µM (inactive) | > 100 µM (inactive) | > 100 µM (inactive) |  | > 100 µM (inactive) | > 100 µM (inactive) | > 100 µM (inactive) | > 100 µM (inactive) |  | > 100 µM (inactive) | > 100 µM (inactive) | > 100 µM (inactive) |
| CC1CC(=O)Nc2ccccc2N1C(=O)CN1CCC(CCCCN(C)C)CC1 (stereo not drawn) | > 100 µM (inactive) | > 100 µM (inactive) | > 100 µM (inactive) | > 100 µM (inactive) | > 100 | > 100 µM (inactive) | > 100 µM (inactive) | > 100 µM (inactive) | > 100 µM (inactive) | > 100 µM (inactive) | > 100 µM (inactive) | > 100 µM (inactive) | > 100 µM (inactive) | > 100 µM (inactive) | > 100 µM (inactive) |  | > 100 µM (inactive) | > 100 µM (inactive) | > 100 µM (inactive) |
| CN(C)C(=N)c1ccccc1 | > 100 µM (inactive) | > 100 µM (inactive) |  | > 100 µM (inactive) |  | > 100 µM (inactive) |  | > 100 µM (inactive) | > 100 µM (inactive) | > 100 µM (inactive) | > 100 µM (inactive) | > 100 µM (inactive) | > 100 µM (inactive) | > 100 µM (inactive) | > 100 µM (inactive) |  |  | > 100 µM (inactive) | > 100 µM (inactive) |
| C#CC1(O)CCC2C3CCc4cc(Oc5nc(F)nc(-c6c7ccccc7c7n6CCS7)n5)ccc4C3CC[C@@]21C (stereo partly drawn) | 38.5 µM (inactive) |  | 26.9 µM (inactive) | 34 µM (inactive) | 15.1 | 15.6 µM (inactive) | 29.6 µM (inactive) | 24.6 µM (inactive) | 17.9 µM (inactive) | 4.37 µM (inactive) | 36.1 µM (inactive) | 27.9 µM (inactive) | 19.2 µM (inactive) | 17.5 µM (inactive) | 28.6 µM (inactive) |  | 21.1 µM (inactive) | 28.8 µM (inactive) | 5.79 µM (inactive) |
| Cc1nc2ccccn2c1/N=N/c1ccc(C(=O)NN)cc1 | > 100 µM (inactive) | 27.7 µM (inactive) | 5.02 µM (inactive) | 25.5 µM (inactive) | 54.2 | 43.2 µM (inactive) | 36 µM (inactive) | 49.5 µM (inactive) | 38.3 µM (inactive) |  | 97.5 µM (inactive) | 73.5 µM (inactive) | 75.7 µM (inactive) | > 100 µM (inactive) | 36.9 µM (inactive) |  | 80.2 µM (inactive) | 22.2 µM (inactive) |  |
| C=C1CCC(OC(C)=O)C2(C)C(OC(C)=O)CC3OC3(C)C2C(OC(C)=O)C2C(C)C(=O)OC2C1Cl (stereo not drawn) | > 100 µM (inactive) | > 100 µM (inactive) | > 100 µM (inactive) | > 100 µM (inactive) | > 100 | > 100 µM (inactive) | > 100 µM (inactive) | > 100 µM (inactive) | > 100 µM (inactive) |  | > 100 µM (inactive) | > 100 µM (inactive) | > 100 µM (inactive) | > 100 µM (inactive) | > 100 µM (inactive) |  | > 100 µM (inactive) | > 100 µM (inactive) | > 100 µM (inactive) |
| COc1ccc2nc3cc(Cl)ccc3c(NC(C)CCCN(CCCl)CCCl)c2c1 (stereo not drawn) | 1.85 µM (inactive) | 0.269 µM (active) | 0.054 µM (active) | 0.387 µM (active) | 1.11 | 0.215 µM (active) | 0.161 µM (active) | 0.74 µM (active) | 1.4 µM (inactive) | 0.55 µM (active) | 1.43 µM (inactive) | 0.272 µM (active) | 1.35 µM (inactive) | 0.809 µM (active) | 2.04 µM (inactive) |  | 0.29 µM (active) | 0.785 µM (active) | 0.0463 µM (active) |
| COc1ccc(C(=O)C(C(=O)CC(=O)Nc2cccc(C(F)(F)F)c2)c2ccc(OC)cc2)cc1 (stereo not drawn) | > 100 µM (inactive) | > 100 µM (inactive) | > 100 µM (inactive) | > 100 µM (inactive) | > 100 | > 100 µM (inactive) | > 100 µM (inactive) | > 100 µM (inactive) | > 100 µM (inactive) | > 100 µM (inactive) | > 100 µM (inactive) | > 100 µM (inactive) | > 100 µM (inactive) | > 100 µM (inactive) | > 100 µM (inactive) |  | > 100 µM (inactive) | > 100 µM (inactive) | > 100 µM (inactive) |
| N#CC(C#N)=c1ccc(=C2N3CCCC3CN2C23CC4CC(CC(C4)C2)C3)cc1 (stereo not drawn) | > 100 µM (inactive) | > 100 µM (inactive) | > 100 µM (inactive) | > 100 µM (inactive) | > 100 | > 100 µM (inactive) | > 100 µM (inactive) | 84.1 µM (inactive) | 24.4 µM (inactive) | > 100 µM (inactive) | > 100 µM (inactive) | > 100 µM (inactive) | > 100 µM (inactive) | > 100 µM (inactive) | > 100 µM (inactive) |  | 90.6 µM (inactive) |  | > 100 µM (inactive) |
| C[C@]12CCC(=O)C(OC(=O)c3ccc([N+](=O)[O-])cc3)=C1CCC2=O | > 100 µM (inactive) | > 100 µM (inactive) | > 100 µM (inactive) | 95.5 µM (inactive) | > 100 | > 100 µM (inactive) | > 100 µM (inactive) | > 100 µM (inactive) | > 100 µM (inactive) | > 100 µM (inactive) | > 100 µM (inactive) | > 100 µM (inactive) | > 100 µM (inactive) | > 100 µM (inactive) |  |  | > 100 µM (inactive) | > 100 µM (inactive) | > 100 µM (inactive) |
| [C-]#[N+][C@@H]1C2[C@H](CC[C@@]1(C)O)C(=C)CC[C@@H]2[C@@]1(C)CC[C@H](Cl)C(C)(C)O1 (stereo partly drawn) | 5.28 µM (inactive) | 4.38 µM (inactive) |  | 4.46 µM (inactive) | 2.55 | 12.1 µM (inactive) | 4.22 µM (inactive) | 7.1 µM (inactive) |  | 4.42 µM (inactive) | 8.32 µM (inactive) | 11.9 µM (inactive) | 11.1 µM (inactive) | 2.81 µM (inactive) | 2.06 µM (inactive) |  | 3.59 µM (inactive) | 4.82 µM (inactive) |  |
